The values that follow come from patent US8501446B2 (Vertex Pharmaceuticals Incorporated, priority 2004, dated 2013).

Common to all, as to type: biochemical
One assay deals with T1, Aurora-C (Homo sapiens, UniProt Q9UQB9).
T1 sequence (Q9UQB9 1-309): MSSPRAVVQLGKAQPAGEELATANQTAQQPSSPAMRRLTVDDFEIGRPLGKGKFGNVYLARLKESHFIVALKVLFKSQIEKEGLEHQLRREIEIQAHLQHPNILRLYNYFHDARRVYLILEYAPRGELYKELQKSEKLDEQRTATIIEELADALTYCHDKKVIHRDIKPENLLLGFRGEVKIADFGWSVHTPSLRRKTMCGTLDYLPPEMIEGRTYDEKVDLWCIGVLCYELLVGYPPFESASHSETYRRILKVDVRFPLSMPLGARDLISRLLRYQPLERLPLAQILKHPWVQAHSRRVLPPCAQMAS
As to the kind of experiment: Aurora-C inhibition assay, coupled enzyme system as for Aurora-A. The conditions noted are these: average Ki if more than one value determined. On the procedure: Compounds were screened for their ability to inhibit full length Aurora-A (AA 1-403) activity using a standard coupled enzyme system (Fox et al., Protein Sci. 7, pp. 2249 (1998)). Reactions were carried out in a solution containing 100 mM HEPES (pH 7.5), 10 mM MgCl2, 25 mM NaCl, 300 μM NADH, 1 mM DTT and 3% DMSO. Final substrate concentrations in the assay were 200 μM ATP (Sigma Chemicals, St Louis, Mo.) and 800 μM peptide (LRRASLG, American Peptide, Sunnyvale, Calif.). Reactions were carried out at 30° C. and 35 nM Aurora-A. Final concentrations of the components of the coupled enzyme system were 2.5 mM phosphoenolpyruvate, 200 μM NADH, 60 μg/ml pyruvate kinase and 20 μg/ml lactate dehydrogenase.
An assay stock buffer solution was prepared containing all of the reagents listed above with the exception of ATP and the test compound of interest. The assay stock buffer solution (60 μl) was incubated in a 96 well plate with 2 μl of the test compound of interest at final concentrations spanning 0.002 μM to 30 μM at 30° C. for 10 min. Typically, a 12 point titration was conducted by preparing serial dilutions (from 1 mM compound stocks) with DMSO of the test compounds in daughter plates. The reaction was initiated by the addition of 5 μl of ATP (final concentration 200 μM). Rates of reaction were obtained using a Molecular Devices Spectramax plate reader (Sunnyvale, Calif.) over 10 min at 30° C. The Ki values were determined from the rate data as a function of inhibitor concentration using computerized nonlinear regression (Prism 3.0, Graphpad Software, San Diego, Calif.). Aurora-C activity was screened in a similar manner using Aurora-C protein. Aurora-B activity was screened using a radioactive assay, such as described in Examples 1 and 2, but using Aurora-B protein.

Assay [1] deals with T2, full length Aurora-A (AA 1-403) (Homo sapiens, UniProt O14965).
T2 construct: full length Aurora-A (AA 1-403)
T2 sequence (O14965 1-403): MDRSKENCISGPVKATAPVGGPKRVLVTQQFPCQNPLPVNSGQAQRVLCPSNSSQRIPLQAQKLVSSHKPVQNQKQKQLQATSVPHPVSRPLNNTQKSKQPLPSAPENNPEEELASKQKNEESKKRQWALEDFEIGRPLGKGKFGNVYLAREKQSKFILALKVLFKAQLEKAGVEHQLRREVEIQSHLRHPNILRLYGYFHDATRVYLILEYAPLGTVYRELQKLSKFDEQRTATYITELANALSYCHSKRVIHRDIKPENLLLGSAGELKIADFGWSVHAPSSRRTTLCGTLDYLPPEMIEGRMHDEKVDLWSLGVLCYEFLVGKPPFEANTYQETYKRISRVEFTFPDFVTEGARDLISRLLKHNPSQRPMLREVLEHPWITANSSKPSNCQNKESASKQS
Kind of assay: Aurora-A inhibition assay, standard coupled enzyme system. The conditions noted are these: average Ki if more than one value determined.

The target of the next assay is T3, ROCK I (AA 6-553) (Homo sapiens, UniProt Q13464).
T3 construct: ROCK I (AA 6-553)
T3 sequence (Q13464 6-553, species assumed): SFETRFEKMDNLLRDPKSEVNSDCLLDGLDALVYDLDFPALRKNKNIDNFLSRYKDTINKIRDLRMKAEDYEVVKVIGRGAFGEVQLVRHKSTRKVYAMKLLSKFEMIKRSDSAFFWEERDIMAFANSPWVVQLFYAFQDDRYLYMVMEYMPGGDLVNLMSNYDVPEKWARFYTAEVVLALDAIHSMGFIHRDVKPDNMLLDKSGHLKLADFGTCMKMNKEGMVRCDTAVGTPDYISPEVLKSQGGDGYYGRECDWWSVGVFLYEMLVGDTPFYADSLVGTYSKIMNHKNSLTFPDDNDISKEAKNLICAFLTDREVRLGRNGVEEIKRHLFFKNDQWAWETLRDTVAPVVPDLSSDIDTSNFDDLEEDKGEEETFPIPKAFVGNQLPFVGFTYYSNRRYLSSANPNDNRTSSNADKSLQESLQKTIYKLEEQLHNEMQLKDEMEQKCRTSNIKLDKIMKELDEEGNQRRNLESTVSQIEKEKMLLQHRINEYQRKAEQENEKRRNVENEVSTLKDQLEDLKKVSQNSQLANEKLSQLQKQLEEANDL
Kind of assay: ROCK inhibition assay, standard coupled enzyme system ("Enzyme"). The conditions noted are these: enzyme-linked assay. The gist of the method: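 ROCK I (AA 6-553) at 45 nM and 30 °C with 45 μM ATP and 200 μM peptide, in 100 mM HEPES pH 7.5, 10 mM MgCl2, 25 mM NaCl, 2 mM DTT, 1.5% DMSO. ADP output read by a PK/LDH coupled system: 2.5 mM PEP, 350 μM NADH, 30 μg/ml PK, 10 μg/ml LDH.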

The target in another assay is Aurora-B (Homo sapiens, UniProt Q96GD4). Kind of assay: Aurora-B inhibition assay, radioactive assay. The note with it: average Ki if more than one value determined. The gist of the method:
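Radiometric [γ-33P]ATP kinase assay run as described for JAK3/ROCK but with Aurora-B protein; 33P incorporation into substrate measured by filter capture and scintillation counting after TCA quench. Background-subtracted data fit to give Ki(app).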

Sequence of Aurora-B (Q96GD4 whole entry): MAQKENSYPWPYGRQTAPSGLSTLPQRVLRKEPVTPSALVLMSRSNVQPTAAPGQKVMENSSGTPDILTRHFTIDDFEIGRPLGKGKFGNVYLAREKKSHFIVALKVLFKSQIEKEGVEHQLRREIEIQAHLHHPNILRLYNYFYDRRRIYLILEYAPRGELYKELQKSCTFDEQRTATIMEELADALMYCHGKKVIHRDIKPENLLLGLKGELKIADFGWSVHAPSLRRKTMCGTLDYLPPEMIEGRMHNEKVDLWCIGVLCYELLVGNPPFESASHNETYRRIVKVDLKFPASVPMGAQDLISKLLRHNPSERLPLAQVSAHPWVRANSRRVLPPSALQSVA

In the case of `C[C@H](Nc1nc(-c2c[nH]c3ncc(Cl)cc23)ncc1F)C(=O)NCCNS(C)(=O)=O` [Compound 368], the Ki was under 0.5 µM at Aurora-C, under 0.5 µM in assay [1], 0.5 to 5 µM on ROCK I (AA 6-553) and under 0.5 µM at Aurora-B.

As for `Fc1cnc(-c2c[nH]c3ncc(Cl)cc23)nc1NC1CCCNC1` (centres unmarked) [Compound 347], the Ki on Aurora-C is 0.5 to 5 µM; in assay [1] it was under 0.5 µM; at ROCK I (AA 6-553), under 0.5 µM; on Aurora-B it was 0.5 to 5 µM.

For `Fc1cnc(-c2c[nH]c3ncc(Cl)cc23)nc1NCC1CCCCC1` [Compound 349], the Ki at Aurora-C was under 0.5 µM; in assay [1], under 0.5 µM; on ROCK I (AA 6-553), 0.5 to 5 µM; at Aurora-B, under 0.5 µM.

`Clc1ccc(CNc2cccc(-c3c[nH]c4ncc(Cl)cc34)n2)cc1` [Compound 242]: the Ki was under 0.5 µM on Aurora-C, under 0.5 µM in assay [1], 0.5 to 5 µM at ROCK I (AA 6-553) and 0.5 to 5 µM on Aurora-B.

Turning to `CNC(=O)CNc1nc(-c2c[nH]c3ncc(Cl)cc23)ncc1C(C)C` [Compound 430], the Ki on Aurora-C is 0.5 to 5 µM; in assay [1] it was under 0.5 µM; at ROCK I (AA 6-553) it was 0.5 to 5 µM; on Aurora-B, 0.5 to 5 µM.

For `C[C@H](Nc1cc(C(=O)O)nc(-c2c[nH]c3ncc(Cl)cc23)n1)c1ccc(F)cc1` [Compound 323], the inhibitory constant (Ki) is under 0.5 µM at Aurora-C, under 0.5 µM in assay [1], 0.5 to 5 µM on ROCK I (AA 6-553) and under 0.5 µM at Aurora-B.

As for `CNC(=O)[C@H](CO)Nc1nc(-c2c[nH]c3ncc(Cl)cc23)ncc1F` [Compound 387], the Ki is under 0.5 µM at Aurora-C, under 0.5 µM in assay [1], 0.5 to 5 µM on ROCK I (AA 6-553) and under 0.5 µM at Aurora-B.

`Fc1cnc(-c2c[nH]c3ncc(Cl)cc23)nc1NCC1CCCNC1` (centres unmarked) [Compound 326]: the inhibition constant Ki (at Aurora-C; in assay [1]; at ROCK I (AA 6-553); at Aurora-B) was under 0.5 µM each time.

For the compound `Fc1cnc(-c2c[nH]c3ncc(Cl)cc23)nc1NCc1cccnc1` [Compound 317], the Ki on Aurora-C is under 0.5 µM; in assay [1], under 0.5 µM; at ROCK I (AA 6-553), 0.5 to 5 µM; on Aurora-B, under 0.5 µM.

As for `Fc1cnc(-c2c[nH]c3ncc(Cl)cc23)nc1NCC1CCCN1` (centres unmarked) [Compound 328], the Ki on Aurora-C was under 0.5 µM; in assay [1], under 0.5 µM; on ROCK I (AA 6-553) it was 0.5 to 5 µM; at Aurora-B, under 0.5 µM.

`CNCCNC(=O)[C@H](C)Nc1nc(-c2c[nH]c3ncc(Cl)cc23)ncc1F` [Compound 452]: the Ki was under 0.5 µM at Aurora-C, under 0.5 µM in assay [1], 0.5 to 5 µM at ROCK I (AA 6-553) and under 0.5 µM on Aurora-B.

For the compound `O=C(CNc1nc(-c2c[nH]c3ncc(Cl)cc23)nc2ccccc12)NCC(F)(F)F` [Compound 427], the Ki on Aurora-C was 0.5 to 5 µM; in assay [1] it was under 0.5 µM; on ROCK I (AA 6-553), 0.5 to 5 µM; on Aurora-B it was 0.5 to 5 µM.

In the case of `Fc1cnc(-c2c[nH]c3ncc(Cl)cc23)nc1NCc1cccc(Cl)c1` [Compound 312], the Ki was under 0.5 µM on Aurora-C, under 0.5 µM in assay [1], 0.5 to 5 µM on ROCK I (AA 6-553) and under 0.5 µM at Aurora-B.

Consider `Clc1cnc2[nH]cc(-c3cccc(NC4CCCCC4)n3)c2c1` [Compound 290], for which the Ki on Aurora-C is 0.5 to 5 µM; in assay [1], under 0.5 µM; at ROCK I (AA 6-553) it was 0.5 to 5 µM; on Aurora-B, 0.5 to 5 µM.

For `Fc1cnc(-c2c[nH]c3ncc(Cl)cc23)nc1NCC1CCNC1` (centres unmarked) [Compound 329], the Ki (at Aurora-C; in assay [1]; at ROCK I (AA 6-553); on Aurora-B) was under 0.5 µM throughout.

Regarding `C[C@H](Nc1nc(-c2c[nH]c3ncc(Cl)cc23)ncc1F)c1cccc(N)c1` [Compound 333], the Ki is under 0.5 µM at Aurora-C, under 0.5 µM in assay [1], 0.5 to 5 µM on ROCK I (AA 6-553) and under 0.5 µM at Aurora-B.

Take `Fc1cnc(-c2c[nH]c3ncc(Cl)cc23)nc1NC1CCOCC1` [Compound 348]: the Ki at Aurora-C is under 0.5 µM; in assay [1] it was under 0.5 µM; on ROCK I (AA 6-553), 0.5 to 5 µM; at Aurora-B, under 0.5 µM.

Regarding `C[C@H](Nc1nc(-c2c[nH]c3ncc(Cl)cc23)ncc1C#N)C(=O)NCC(F)(F)F` [Compound 420], the inhibitory constant (Ki) on Aurora-C is under 0.5 µM; in assay [1] it was under 0.5 µM; on ROCK I (AA 6-553), 0.5 to 5 µM; at Aurora-B, under 0.5 µM.

For the compound `Fc1cnc(-c2c[nH]c3ncc(Cl)cc23)nc1NCc1ccc(Cl)cc1` [Compound 238], the Ki at Aurora-C was under 0.5 µM; in assay [1], under 0.5 µM; on ROCK I (AA 6-553), 0.5 to 5 µM; at Aurora-B, under 0.5 µM.

As for `C[C@H](Nc1nc(-c2c[nH]c3ncc(Cl)cc23)ncc1F)C1CCCCC1` [Compound 355], the Ki at Aurora-C is under 0.5 µM; in assay [1], under 0.5 µM; on ROCK I (AA 6-553) it was 0.5 to 5 µM; at Aurora-B, under 0.5 µM.

Turning to `Cc1cc(N[C@@H](C)c2ccc(F)cc2)nc(-c2c[nH]c3ncc(Cl)cc23)n1` [Compound 324], the Ki on Aurora-C is under 0.5 µM; in assay [1] it was under 0.5 µM; at ROCK I (AA 6-553), 0.5 to 5 µM; at Aurora-B, under 0.5 µM.

On to `CC[C@H](Nc1nc(-c2c[nH]c3ncc(Cl)cc23)ncc1F)C(=O)NC` [Compound 361], for which the Ki at Aurora-C is under 0.5 µM; in assay [1], under 0.5 µM; at ROCK I (AA 6-553) it was 0.5 to 5 µM; on Aurora-B, under 0.5 µM.

As for `CNC(=O)[C@H](C)Nc1nc(-c2c[nH]c3ncc(Cl)cc23)ncc1F` [Compound 340], the Ki was under 0.5 µM at Aurora-C, under 0.5 µM in assay [1], 0.5 to 5 µM at ROCK I (AA 6-553) and under 0.5 µM at Aurora-B.

Regarding `C[C@H](Nc1nc(-c2c[nH]c3ncc(Cl)cc23)ncc1F)c1ccc(F)cc1` [Compound 285], the Ki on Aurora-C is under 0.5 µM; in assay [1] it was under 0.5 µM; on ROCK I (AA 6-553), 0.5 to 5 µM; on Aurora-B, under 0.5 µM.

For `CC(C)c1cnc(-c2c[nH]c3ncc(Cl)cc23)nc1N[C@@H](C)C(=O)NCC(F)(F)F` [Compound 429], the Ki at Aurora-C was 0.5 to 5 µM; in assay [1] it was under 0.5 µM; at ROCK I (AA 6-553) it was 0.5 to 5 µM; on Aurora-B, 0.5 to 5 µM.

Consider `Fc1cnc(-c2c[nH]c3ncc(Cl)cc23)nc1NC1CCNCC1` [Compound 345], for which the Ki was 0.5 to 5 µM at Aurora-C, under 0.5 µM in assay [1], under 0.5 µM on ROCK I (AA 6-553) and 0.5 to 5 µM on Aurora-B.

Regarding `Fc1cnc(-c2c[nH]c3ncc(Cl)cc23)nc1NCc1ccccn1` [Compound 316], the Ki was under 0.5 µM on Aurora-C, under 0.5 µM in assay [1], 0.5 to 5 µM at ROCK I (AA 6-553) and under 0.5 µM at Aurora-B.

For the compound `C[C@H](Nc1nc(-c2c[nH]c3ncc(Cl)cc23)ncc1C(=O)O)c1ccc(F)cc1` [Compound 370], the Ki at Aurora-C was under 0.5 µM; in assay [1], under 0.5 µM; at ROCK I (AA 6-553), 0.5 to 5 µM; on Aurora-B, under 0.5 µM.

Turning to `C#Cc1cnc2[nH]cc(-c3ncc(F)c(N[C@@H](C)c4ccc(F)cc4)n3)c2c1` [Compound 374], the Ki on Aurora-C was under 0.5 µM; in assay [1], under 0.5 µM; on ROCK I (AA 6-553) it was 0.5 to 5 µM; at Aurora-B, under 0.5 µM.
